Results taken from PubChem BioAssay (NCI).
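These data come from cells grown in 96-well plates and exposed to compound for 48 hours at five concentrations. The concentration for 50% growth inhibition is given as GI50. TGI: concentration producing complete growth inhibition.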

Tests used:
Experiment in all cases: NCI anticancer screen, dose series, 48 h
DU-145 prostate = test system: DU-145 prostate
BT-549 breast = test system: BT-549 breast
MDA-N = test system: MDA-N
786-0 renal = test system: 786-0 renal
PC-3 prostate = test system: PC-3 prostate
HS 578T breast = test system: HS 578T breast
SR leukemia = test system: SR leukemia
T-47D breast = test system: T-47D breast
NCI/ADR-RES ovarian = test system: NCI/ADR-RES ovarian
DLD-1 colon = test system: DLD-1 colon
M19-MEL melanoma = test system: M19-MEL melanoma
XF 498 CNS = test system: XF 498 CNS
DMS 114 small cell lung = test system: DMS 114 small cell lung

Row | SMILES | TGI (DU-145 prostate) [µM] | TGI (BT-549 breast) [µM] | TGI (MDA-N) [µM] | TGI (786-0 renal) [µM] | TGI (PC-3 prostate) [µM] | TGI (HS 578T breast) [µM] | TGI (SR leukemia) [µM] | TGI (T-47D breast) [µM] | TGI (NCI/ADR-RES ovarian) [µM] | GI50 (DU-145 prostate) [µM] | GI50 (BT-549 breast) [µM] | GI50 (HS 578T breast) [µM] | GI50 (NCI/ADR-RES ovarian) [µM] | TGI (DLD-1 colon) [µM] | TGI (M19-MEL melanoma) [µM] | TGI (XF 498 CNS) [µM] | TGI (DMS 114 small cell lung) [µM]
1 | CN=C(N)/N=C(\N)Nc1cc2ccccc2c2ccccc12 | 32.3 | 29.3 | 27.8 | 25.5 | 29.5 | 42.3 | 47.8 | 40.5 | 49.9 |  |  |  |  |  |  |  | 
2 | COc1cc(NC(=O)CSc2nc3ccccc3c(=O)n2CCc2ccccc2)cc(OC)c1OC | > 100 | 9.47 |  |  |  | > 100 |  |  | > 100 | 4.98 | 3.22 | 3.52 | 3.77 |  |  |  | 
3 | CC(=O)N1CC(=O)NC1=S |  |  |  | > 100 |  |  | > 100 |  |  |  |  |  |  | > 100 | > 100 | > 100 | > 100
4 | O=C(Nc1cccc([N+](=O)[O-])c1)C(=O)C(C(=O)c1ccccc1F)C1OC(=O)C2C=CC=CC21 (stereo not drawn) |  |  |  |  |  |  | 84.7 |  |  |  |  |  |  | > 100 | > 100 | > 100 | 
5 | C/C=C1/CN2CCC34c5ccccc5N(C)C23C2CC1C4(C(=O)OC)C(O)O2 (stereo not drawn) | > 100 | > 100 | > 100 | > 100 | > 100 | > 100 |  | > 100 | > 100 |  |  |  |  |  |  |  | 
6 | COc1c(O)c(O)c2c(c1O)C(=O)c1cc(C)cc(O)c1C2=O | > 100 | > 100 | > 100 | > 100 | > 100 | 78.9 | > 100 | > 100 | 47.3 |  |  |  |  |  |  |  | 
7 | N#CCCOCN(CO)c1nc(N(CO)COCCC#N)nc(N(CO)COCCC#N)n1 |  |  |  |  |  |  | 41.7 |  |  |  |  |  |  | 75.9 | 50 | 31.5 | 52.4
8 | c1ccc(CCN2CCOCC2)nc1 | > 100 | > 100 | > 100 | > 100 | > 100 | > 100 | > 100 | > 100 | > 100 |  |  |  |  |  |  |  | 
